Source: US20080262037A1, “Piperidine Derivatives for the Treatment of Chemokine Mediated Disease” (ASTRAZENECA AB, priority 2004, published 2008)
Structures can show the parent of a compound that is named as a salt.

Biological target: T1, human H1 receptor (Homo sapiens, UniProt P35367)
T1 construct: purchased Euroscreen SA, Brussels, Belgium ES-390-M; host or cells: CHO-K1 cells (membranes)
Assay: Histamine H1 receptor binding, competition displacement of [3H]-pyrilamine
Conditions: displacement of 1 nM [3H]-pyrilamine; membranes from recombinant CHO-K1 cells expressing the human H1 receptor; 1 hour at room temperature; read-out: H1 pKi/[1328_S] (converted)

T1 sequence (P35367 whole entry): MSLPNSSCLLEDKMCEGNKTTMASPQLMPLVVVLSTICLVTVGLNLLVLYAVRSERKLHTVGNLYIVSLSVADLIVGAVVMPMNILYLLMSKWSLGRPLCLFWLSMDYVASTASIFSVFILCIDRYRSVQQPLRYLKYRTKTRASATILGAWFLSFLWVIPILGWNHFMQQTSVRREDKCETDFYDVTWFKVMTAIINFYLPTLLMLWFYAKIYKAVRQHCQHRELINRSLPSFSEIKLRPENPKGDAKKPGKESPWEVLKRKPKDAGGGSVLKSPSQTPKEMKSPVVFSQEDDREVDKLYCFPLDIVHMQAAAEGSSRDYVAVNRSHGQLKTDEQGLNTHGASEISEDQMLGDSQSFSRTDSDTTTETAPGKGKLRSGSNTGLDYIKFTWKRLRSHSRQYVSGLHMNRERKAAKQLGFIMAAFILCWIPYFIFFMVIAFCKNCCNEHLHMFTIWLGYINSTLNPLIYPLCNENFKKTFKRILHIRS

SMILES | Ki
Cc1c(OC2CCN(CC3CCN(c4cccc(O[C@H](C)C(=O)O)c4)CC3)CC2)ccc(C#N)c1Cl [Example 37, (2R)-2-[3-(4-{[4-(3-Chloro-4-cyano-2-methylphenoxy)piperidin-1-yl]methyl}piperidin-1-yl)phenoxy]propanoic acid] | 398 nM
O=C(O)COc1c(Cl)cccc1N1CCC(CN2CCC(Oc3ccc(Cl)c(Cl)c3)CC2)CC1 [Example 40, (2-chloro-6-{4-[4-(3,4-dichloro-phenoxy)-piperidin-1-ylmethyl]-piperidin-1-yl}-phenoxy)-acetic acid] | 3.16 nM
Cc1c(OC2CCN(CC3CCN(c4cccc(O[C@@H](C)C(=O)O)c4)CC3)CC2)ccc(Cl)c1Cl [Example 44, (2S)-2-[3-(4-{[4-(3,4-dichloro-2-methylphenoxy)piperidin-1-yl]methyl}piperidin-1-yl)phenoxy]propanoic acid] | 20 nM
COc1ccc(CC(=O)O)cc1N1CCC(CN2CCC(Oc3ccc(Cl)c(Cl)c3)CC2)CC1 [Example 23, [3-(4-{[4-(3,4-Dichlorophenoxy)piperidin-1-yl]methyl}piperidin-1-yl)-4-methoxyphenyl]acetic acid] | 12.6 nM
Cc1c(OC2CCN(CC3CCN(c4ccc(CC(=O)O)cc4)CC3)CC2)ccc(Cl)c1Cl [Example 33, [4-(4-{[4-(3,4-Dichloro-2-methylphenoxy)piperidin-1-yl]methyl}piperidin-1-yl)phenyl]acetic acid] | 12.6 nM
O=C(O)COc1ccc(Cl)cc1N1CCC(CN2CCC(Oc3ccc(Cl)c(Cl)c3)CC2)CC1 [Example 39, (4-Chloro-2-{4-[4-(3,4-dichloro-phenoxy)-piperidin-1-ylmethyl]-piperidin-1-yl}-phenoxy)-acetic acid hydrochloride] | 2 nM

Other lines, results leading:

Ki | SMILES
12.6 nM | C[C@@H](Oc1cccc(N2CCC(CN3CCC(Oc4ccc(Cl)c(Cl)c4)CC3)CC2)c1)C(=O)O [Example 30, (2R)-2-[3-(4-{[4-(3,4-Dichlorophenoxy)piperidin-1-yl]methyl}piperidin-1-yl)phenoxy]propanoic acid]
12.6 nM | C[C@H](Oc1ccccc1N1CCC(CN2CCC(Oc3ccc(Cl)c(Cl)c3)CC2)CC1)C(=O)O [Example 29, (2S)-2-[2-(4-{[4-(3,4-Dichlorophenoxy)piperidin-1-yl]methyl}piperidin-1-yl)phenoxy]propanoic acid]
10 nM | C[C@@H](Oc1ccccc1N1CCC(CN2CCC(Oc3ccc(Cl)c(Cl)c3)CC2)CC1)C(=O)O [Example 28, (2R)-2-[2-(4-{[4-(3,4-Dichlorophenoxy)piperidin-1-yl]methyl}piperidin-1-yl)phenoxy]propanoic acid]
31.6 nM | CC(C)(Oc1ccccc1N1CCC(CN2CCC(Oc3ccc(Cl)c(Cl)c3)CC2)CC1)C(=O)O [Example 27, 2-[2-(4-{[4-(3,4-Dichlorophenoxy)piperidin-1-yl]methyl}piperidin-1-yl)phenoxy]-2-methylpropanoic acid]
